Data reported in patent US6881741B2 (ViroChem Pharma Inc., priority 2001, dated 2005).
Read-outs that look alike come from different tables or passages of the source.

What was measured:
[1] = target: T1, HCV NS3 enzyme (ATPase activity of HCV NS3 helicase) (Hepatitis C virus genotype 1b, UniProt P26663); assay: ATPase activity of HCV NS3 helicase, HPLC Assay; assay type: biochemical; details: ADP produced measured by paired-ion HPLC, 1 nM enzyme, read-out: Anti-ATPase (HPLC method) EC50
Experimental: (§1) Evaluation of Analogues for measurement of ATPase activity of HCV NS3 helicase
The measurement of HCV NS3 ATPase activity was performed by measuring the amount of ADP produced during the conversion of ATP to ADP by the HCV NS3 enzyme using paired-ion HPLC on a reverse phase column. […]. The mobile phase was an isocratic solution of 0.15 M triethylamine, 6% methanol, and phosphoric acid to pH 5.5. ADP and ATP peaks were resolved using the Aqua 5μ, C18, 125 Å, (150×4.6 mm) reverse phase column. The extent of ATP conversion to ADP was evaluated by measuring the area under the ADP peak produced which was detected at 259 nm. The amount of ADP was corrected for the presence of ADP contaminant in the original ATP solution. […] The IC50 was determined from dose-response curves using six to eight concentrations per compound. Curves were fitted to data points using a non-linear regression analysis, and IC50s were interpolated from the resulting curves using GraphPad Prism software, version 2.0 (GraphPad Software Inc, San Diego, Calif.).

[2] = target: recombinant HCV NS5B (HCV RNA-dependent RNA polymerase) (Hepatitis C virus genotype 1b, UniProt P26663); assay: biochemical
[3] = target: T1, HCV NS3 enzyme (ATPase activity of HCV NS3 helicase); assay: ATPase activity of HCV NS3 helicase, Malachite Green Assay; assay type: biochemical; details: free inorganic phosphate release, 30 min at 37 C, 200 μM ATP, 3 nM enzyme, read-out: Anti-ATPase (Malachite Green assay) EC50
Experimental: as §1
The measurement of ATPase activity was performed by measuring the amount of free inorganic phosphate released during the conversion of ATP to ADP by the HCV NS3 ATPase activity. The assay is as follows: In a 96-well microtiter-plate, compounds were dissolved at various concentrations in a final volume of 25 μl of ATPase buffer containing 400 μM ATP. The enzymatic reaction was initiated by the addition of 25 μl of ATPase buffer containing 6 nM of HCV NS3 enzyme without ATP to the wells followed by an incubation of 30 min. at 37 C. Essentially, the final concentration of the ATPase buffer components are as follows: 44 mM MOPS pH 7.0, 8.8 mM NaCl, 2.2 mM MgCl2, 125 μg/ml poly A, 1% DMSO, 200 μM ATP, and 3 nM HCV NS3 enzyme. The reaction was stopped by the addition of 100 μl of Biomol Green™ reagent (BIOMOL® Research Laboratories Inc., Plymouth Meeting, Pa.). In order to allow the development of the green color, the plate was incubated for 15 min. at room temperature. Then the plate was read on a micro-plate reader at 620 nm. […] The signal recorded was also corrected from the background signal obtained with control samples with compound only. The IC50 was determined from dose-response curves using six to eight concentrations per compound. […]

[4] = related polymerase activity (Example 27 list), read-out: IC50
[5] = HCV polymerase activity, list of compounds of Example 27, read-out: IC50 (polymerase activity)

T1 sequence (P26663 1027-1657 limits assumed): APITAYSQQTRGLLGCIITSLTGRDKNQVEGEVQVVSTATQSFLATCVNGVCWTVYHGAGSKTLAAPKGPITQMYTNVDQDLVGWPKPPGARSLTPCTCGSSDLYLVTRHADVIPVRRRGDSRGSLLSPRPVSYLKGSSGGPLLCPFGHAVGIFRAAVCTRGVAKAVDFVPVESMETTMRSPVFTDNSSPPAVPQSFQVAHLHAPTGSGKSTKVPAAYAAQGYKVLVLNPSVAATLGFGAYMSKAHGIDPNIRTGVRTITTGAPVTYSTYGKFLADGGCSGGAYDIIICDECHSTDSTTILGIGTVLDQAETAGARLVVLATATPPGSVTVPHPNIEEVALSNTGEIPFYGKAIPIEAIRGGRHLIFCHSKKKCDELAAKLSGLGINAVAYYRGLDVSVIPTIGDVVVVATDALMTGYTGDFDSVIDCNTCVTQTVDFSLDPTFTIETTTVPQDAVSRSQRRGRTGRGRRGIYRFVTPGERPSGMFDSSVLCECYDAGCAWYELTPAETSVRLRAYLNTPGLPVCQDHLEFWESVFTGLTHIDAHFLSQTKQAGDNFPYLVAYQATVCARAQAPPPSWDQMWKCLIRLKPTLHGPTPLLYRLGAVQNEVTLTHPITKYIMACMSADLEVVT
Sequence of recombinant HCV NS5B (HCV RNA-dependent RNA polymerase) (P26663 2420-3010 limits assumed): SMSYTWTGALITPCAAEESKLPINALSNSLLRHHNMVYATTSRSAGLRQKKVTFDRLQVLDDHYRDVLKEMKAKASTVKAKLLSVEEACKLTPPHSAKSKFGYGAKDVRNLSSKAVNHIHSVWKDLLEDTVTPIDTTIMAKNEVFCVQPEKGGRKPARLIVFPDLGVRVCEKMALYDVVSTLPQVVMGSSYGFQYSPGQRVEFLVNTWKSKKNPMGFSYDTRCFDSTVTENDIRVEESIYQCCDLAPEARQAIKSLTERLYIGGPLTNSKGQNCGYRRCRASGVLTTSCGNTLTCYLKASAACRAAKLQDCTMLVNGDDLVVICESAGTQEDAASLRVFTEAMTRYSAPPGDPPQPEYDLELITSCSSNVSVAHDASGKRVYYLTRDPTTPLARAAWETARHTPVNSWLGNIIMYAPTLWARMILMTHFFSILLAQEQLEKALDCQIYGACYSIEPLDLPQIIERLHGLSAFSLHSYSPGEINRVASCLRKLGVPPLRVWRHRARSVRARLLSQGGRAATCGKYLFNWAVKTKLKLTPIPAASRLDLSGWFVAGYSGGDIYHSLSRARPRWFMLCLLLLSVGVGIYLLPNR

Structure (SMILES)	IC50 [2, 4] [µM]	other results
CC(C)Cc1ccc(-c2cc(NS(=O)(=O)c3ccc(F)c(F)c3F)c(C(=O)O)s2)cc1 [Compound #582, 5-(4-Isobutyl-phenyl)-3-(2,3,4-trifluoro-benzenesulfonylamino)-thiophene-2-carboxylic acid]		EC50 [1]: > 20 µM
CC(C)Cc1ccc(-c2cc(NS(=O)(=O)c3ccc(-c4cc(C(F)(F)F)on4)s3)c(C(=O)O)s2)cc1 [Compound #581, 5-(4-Isobutyl-phenyl)-3-[5-(5-trifluoromethyl-isoxazol-3-yl)-thiophene-2-sulfonylamino]-thiophene-2-carboxylic acid]		EC50 [1]: 5 to 20 µM
COc1cccc(S(=O)(=O)Nc2cc(-c3ccc(CC(C)C)cc3)sc2C(=O)O)c1 [Compound #225]	> 20	EC50 [1]: > 20 µM
Cc1cc(Br)ccc1S(=O)(=O)Nc1cc(-c2ccc(CC(C)C)cc2)sc1C(=O)O [Compound #224, 3-(4-Bromo-2-methylbenzenesulfonyl-amino)-5-(4-isobutylphenyl)-thiophene-2-carboxylic acid]	> 20	EC50 [1]: 5 to 20 µM
Cc1cc(S(=O)(=O)Nc2cc(-c3ccc(Cl)cc3)sc2C(=O)O)c(C)cc1Cl [Compound #14, 3-(4-Chloro-2,5-dimethyl-benzenesulfonylamino)-5-(4-chloro-phenyl)-thiophene-2-carboxylic acid]	< 5	EC50 [3]: > 20 µM
CC(C)Cc1ccc(-c2cc(NS(=O)(=O)c3ccc(Br)cc3F)c(C(=O)O)s2)cc1 [Compound #223, 3-(4-Bromo-2-fluorobenzenesulfonyl-amino)-5-(4-isobutylphenyl)-thiophene-2-carboxylic acid]	5 to 20	EC50 [1]: < 5 µM
CC(C)Cc1ccc(-c2cc(NS(=O)(=O)c3ccc(C#N)cc3Cl)c(C(=O)O)s2)cc1 [Compound #228, 3-(2-Chloro-4-cyanobenzenesulfonyl-amino)-5-(4-isobutylphenyl)-thiophene-2-carboxylic acid]	> 20	EC50 [1]: > 20 µM
CC(C)Cc1ccc(-c2cc(NS(=O)(=O)c3cc(OCC(F)(F)F)ccc3OCC(F)(F)F)c(C(=O)O)s2)cc1 [Compound #227, 3-[2,5-Bis-(2,2,2-trifluoroethoxy)-benzenesulfonylamino]-5-(4-isobutyl-phenyl)-thiophene-2-carboxylic acid]	> 20	EC50 [1]: > 20 µM
Cc1cc(S(=O)(=O)Nc2cc(-c3ccc(CC(C)C)cc3)sc2C(=O)O)c(C)cc1Cl [Compound #19, 3-(4-Chloro-2,5-dimethyl-benzenesulfonylamino)-5-(4-isobutyl-phenyl)-thiophene-2-carboxylic acid]	5 to 20	EC50 [1]: 5 to 20 µM; EC50 [3]: < 5 µM
CCC(=O)N(Cc1ccc(C)cc1)c1cc(-c2ccccc2)sc1C(=O)O [Compound 467, 3-[(4-METHYL-BENZYL)-PROPIONYL- AMINO]-5-PHENYL-THIOPHENE-2- CARBOXYLIC ACID]		IC50 [2, 5]: 5 to 20 µM
CC(C)N(C(=O)c1ccc(C(F)(F)F)cc1F)c1cc(-c2ccccc2)sc1C(=O)O [Compound 326, 3-[(2-FLUORO-4-TRIFLUOROMETHYL- BENZOYL)-ISOPROPYL-AMINO]-5- PHENYL-THIOPHENE-2-CARBOXYLIC ACID]	< 5	
COc1ccc(-c2cc(N(C(=O)C3CCC(C)CC3)C(C)C)c(C(=O)O)s2)cc1 (stereo not shown) [Compound 577, 3-[ISOPROPYL-(4-METHYL- CYCLOHEXANECARBONYL)-AMINO]-5-(4- METHOXY-PHENYL)-THIOPHENE-2- CARBOXYLIC ACID]		IC50 [2, 5]: < 5 µM
Cc1ccc(C(=O)N(C)c2cc(-c3cccc(O)c3)sc2C(=O)O)cc1 [Compound 273, 5-(3-HYDROXY-PHENYL)-3-[METHYL-(4-METHYL-BENZOYL)-AMINO]-THIOPHENE-2-CARBOXYLIC ACID]	< 5	
Cc1ccccc1S(=O)(=O)Nc1cc(-c2cccc3cccnc23)sc1C(=O)O [Compound 61, 5-QUINOLIN-8-YL-3-(TOLUENE-2-SULFONYLAMINO)-THIOPHENE-2-CARBOXYLIC ACID]	> 20	
CCCC(=O)N(Cc1ccccc1Cl)c1cc(-c2ccccc2)sc1C(=O)O [Compound 447, 3-[BUTYRYL-(2-CHLORO-BENZYL)- AMINO]-5-PHENYL-THIOPHENE-2- CARBOXYLIC ACID]		IC50 [2, 5]: < 5 µM
CC(=O)N(Cc1ccc(Cl)cc1)c1cc(-c2ccccc2)sc1C(=O)O [Compound 455, 3-[ACETYL-(4-CHLORO-BENZYL)-AMINO]- 5-PHENYL-THIOPHENE-2-CARBOXYLIC ACID]		IC50 [2, 5]: 5 to 20 µM
C=CCN(C(=O)Cc1ccc(C(F)(F)F)cc1)c1cc(-c2ccccc2)sc1C(=O)O [Compound 352, 3-{ALLYL-[2-(4-TRIFLUOROMETHYL- PHENYL)-ACETYL]-AMINO}-5-PHENYL- THIOPHENE-2-CARBOXYLIC ACID]	> 20	
Cc1ccc(C(=O)N(Cc2cccc(C(F)(F)F)c2)c2cc(-c3ccccc3)sc2C(=O)O)cc1 [Compound 330, 3-[(4-METHYL-BENZOYL)-(3- TRIFLUOROMETHYL-BENZYL)-AMINO]-5- PHENYL-THIOPHENE-2-CARBOXYLIC ACID]	< 5	
Cc1ccc(C)c(S(=O)(=O)Nc2cc(-c3ccc(F)cc3)sc2C(=O)O)c1 [Compound 107, 3-(2,5-DIMETHYL-BENZENESULFONYLAMINO)-5-(4-FLUORO-PHENYL)-THIOPHENE-2-CARBOXYLIC ACID]	< 5	
CC1CCC(C(=O)N(c2cc(-c3ccccc3)sc2C(=O)O)C2CCCCC2)CC1 (stereo not shown) [Compound 579, 3-[CYCLOHEXYL-(4-METHYL- CYCLOHEXANECARBONYL)-AMINO]-5- PHENYL-THIOPHENE-2-CARBOXYLIC ACID]		IC50 [2, 5]: < 5 µM
CC(C)N(C(=O)c1ccc(Cl)nc1Cl)c1cc(-c2ccccc2)sc1C(=O)O [Compound 250, 3-[(2,6-DICHLORO-PYRIDINE-3-CARBONYL)-ISOPROPYL-AMINO]-5-PHENYL-THIOPHENE-2-CARBOXYLIC ACID]	5 to 20	
COCC(C)N(C(=O)C1CCC(C)CC1)c1cc(-c2ccccc2)sc1C(=O)O (stereo not shown) [Compound 578, 3-[(2-METHOXY-1-METHYL-ETHYL)-(4- METHYL-CYCLOHEXANECARBONYL)- AMINO]-5-PHENYL-THIOPHENE-2- CARBOXYLIC ACID]		IC50 [2, 5]: < 5 µM
CC(C)C(=O)N(Cc1ccc(F)cc1F)c1cc(-c2ccccc2)sc1C(=O)O [Compound 485, 3-[(2,4-DIFLUORO-BENZYL)- ISOBUTYRYL-AMINO]-5-PHENYL- THIOPHENE-2-CARBOXYLIC ACID]		IC50 [2, 5]: 5 to 20 µM
O=C(O)c1sc(-c2ccccc2)cc1NS(=O)(=O)c1cc(Cl)sc1Cl [Compound 55, 3-(2,5-DICHLORO-THIOPHENE-3-SULFONYLAMINO)-5-PHENYL-THIOPHENE-2-CARBOXYLIC ACID]	5 to 20	
O=C(O)c1sc(-c2ccccc2)cc1N(C(=O)c1ccc(Cl)cc1Cl)C1CCCC1 [Compound 201, 3-[CYCLOPENTYL-(2,4-DICHLORO-BENZOYL)-AMINO]-5-PHENYL-THIOPHENE-2-CARBOXYLIC ACID]	< 5	
Cc1cc(S(=O)(=O)Nc2cc(-c3ccc(F)cc3)sc2C(=O)O)c(C)cc1Cl [Compound 8, 3-(4-CHLORO-2,5-DIMETHYL-BENZENESULFONYLAMINO)-5-(4-FLUORO-PHENYL)-THIOPHENE-2-CARBOXYLIC ACID]	< 5	
O=C(O)c1sc(-c2ccccc2)cc1NS(=O)(=O)c1ccccc1C(F)(F)F [Compound 35, 5-PHENYL-3-(2-TRIFLUOROMETHYL-BENZENESULFONYLAMINO)-THIOPHENE-2-CARBOXYLIC ACID]	> 20	
CN(C(=O)c1cc(Cl)cc(Cl)c1)c1cc(-c2ccccc2)sc1C(=O)O [Compound 254, 3-[(3,5-DICHLORO-BENZOYL)-METHYL-AMINO]-5-PHENYL-THIOPHENE-2-CARBOXYLIC ACID]	5 to 20	
Cc1ccc(C(=O)N(CCO)c2cc(-c3ccccc3)sc2C(=O)O)cc1 [Compound 203, 3-[(2-HYDROXY-ETHYL)-(4-METHYL-BENZOYL)-AMINO]-5-PHENYL-THIOPHENE-2-CARBOXYLIC ACID]	< 5	
